Data reported in PMC2794939 (Biochemistry, 2009).

Tests used:
[1] = biological target: T1, A/M2 wt channel (Influenza A virus, UniProt P0DOF5); type: cell-based
[2] = biological target: T1, A/M2 wt channel; conditions: cited from earlier work
[3] = biological target: T2, transmembrane domain of wt A/M2 protein (M2TM, residues 22–46) (Influenza A virus, UniProt P0DOF5); type: binding; conditions: pH 7.4
T2 sequence (P0DOF5 22-46 limits assumed): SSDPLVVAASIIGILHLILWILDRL

[4] = system: wt influenza virus (A/Udorn/72); type: cell-based

T1 sequence (P0DOF5 whole entry): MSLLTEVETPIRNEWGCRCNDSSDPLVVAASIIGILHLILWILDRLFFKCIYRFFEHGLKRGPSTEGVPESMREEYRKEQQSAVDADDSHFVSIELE

Row | Structure (SMILES) | voltage dependence of inhibition [1] | reversal of inhibition in the time frame of 5 min ([1]; pH 8.5) | dissociation rate constant (κoff) [2] | % remaining activity after application of 100 μM compound [1] [%] | IC50 ([1]; pH 5.5) [µM] | reversibility of inhibition / washout rate ([1]; pH 8.5) | activity ([1]; read-out: AM2 channel activity after 100μM compound inhibition) [%] | Kd [3] [µM] | concentrations at which plaque formation was inhibited [4] [µM] | second-order rate constant (κon) for association and inhibition [2] [M⁻¹ s⁻¹]
1 | NC12CC3CC(CC(C3)C1)C2 [Amantadine, amantadine] | voltage-independence | about 10% | 10^−4 s^−1 | – | – | – | – | – | – | –
2 | C1CCC2(CC1)CCN(C1=NCCN1)CC2 [BL-1743, 2-[3-azaspiro([5],[5])undecanol]-2-imidazoline] | voltage-independence | – | 10^−3 s^−1 | 25.3±1.3 | 45.3 ± 3.92 | essentially fully reversible | 25 | 194 | 50 to 100 | 720
3 | NC1CCC2(CCCCC2)CC1 [Compound 8, spiro[5.5]undecan-3-amine] | voltage-independence | – | – | – | – | not significantly different from that of amantadine | – | – | – | –
